This test can be described thus: Growth of castrate male turkeys implanted with 19-nortestosterone (Study III, Table V). The format is in vivo, Large White Nicholas turkeys. The conditions noted are these: castrated male, 5-cm capsule. The procedure:
The same large white strain of turkey (received 1 day posthatching from Nicholas Breeding Farms, CA) was used in all studies. Poults were reared in deep litter brooder pens from 1 day posthatch and exposed to constant light until initiation of Studies I and III or through completion in the case of Study II. Studies I and III were conducted in an environmentally controlled room (photoperiod 12L:12D) with birds housed individually in wire-floored layer cages (space dimensions of 0.31 W×0.46 L×0.53 H meters per cage). Water and feed (Agway Game and Turkey Starter Crumbles) was available at all times. Turkeys were rank ordered by weight and distributed into treatment groups of equal mean body weights at the start of each Study (I, II and III).
Body weight determinations were made at the second and final week of each study, and several organs and tissues were excised and immediately weighed at the time of necropsy. Final shank-toe length, as an indicator of skeletal growth, was also determined. Birds were sacrificed via exanguination by laceration of the jugular vein. Specific details on the experimental design and conduct of each turkey study will follow.
Male and female turkeys were either sham-operated or castrated (Quigley, 1962) at 4 weeks of age in the same manner as previously described for chickens. However, due to the small size and extremely viscous nature of the turkey testicle at 2 weeks of age, birds were castrated at 4 weeks of age. […] This was important since when a portion of the testicle is left behind or dropped back inside the body cavity after having been torn loose, the bird will become what is called in the poultry industry, a "slip".
Pre- (4 weeks) and post-surgically (1 week), birds were floor-reared together on pine shavings. At 5 weeks of age, birds were transferred to individual layer cages (dimensions as in Study I) in an environmentally controlled animal room. One week later (6 weeks of age), birds were assigned to 4 groups (9 birds/group). Group 1 was composed of intact males (sham-operated); Group 2, intact females (sham-operated); Group 3, castrated males implanted that same day with cholesterol-filled Silastic polysiloxane capsules (5.0-cm); and Group 4, castrated males implanted that same day with 19-nortestosterone-filled Silastic polysiloxane capsules (5.0-cm). Castrated males were rank ordered by weight prior to group assignment. Male and female groups were composed of birds which had the intermediate body weights from a pool of 15 birds for each sex. Birds were randomized (planned) into cages among tiers (5 cages per tier) and racks, similar to that of Study I, in order to eliminate any rack (4) or tier (3 vertical) effects within the room. Birds served as individual treatment units for all parameters measured including feed consumption (i.e., supplied with individual box-type feeders) and were placed into every other cage starting on the top tier in rack 1.

Setting [1] is: change vs castrated control, unsigned (increase).

This note sets out measurements from patent US5208032A, “Increasing the growth of turkeys using implant of 19-nortestosterone” (Rutgers, The State University of New Jersey, priority 1992, dated 1993).

Molecules are shown by their SMILES.

`C[C@]12CC[C@H]3[C@@H](CCC4=CC(=O)CC[C@@H]43)[C@@H]1CC[C@@H]2O` [19-Nortestosterone, 19-nortestosterone]: the “Abdominal Adipose” value came to 4.92 ± 0.91, the “Average Daily Gain” value was 106 ± 3 g, the “Feed/Gain Ratio” value is 1.86 ± 0.05 and the “Final 9-Week Body Weight” value came out at 3643 ± 64 g. The “Final 9-Week Shank-Toe Length” value was determined as 21.44 ± 0.18 cm and the “Right Breast Muscle” value turned out to be 303 ± 13 g. Also, the “Abdominal Adipose (%)” value (change vs castrated control, unsigned (decrease)) stood at 65.6%. Besides, under setting [1], the “Average Daily Gain (%)” value turned out to be 16.5%, the “Final 9-Week Body Weight (%)” value is 5.9% and the “Right Breast Muscle (%)” value was 14.8%. For the same molecule, the “Feed Efficiency” value (change vs castrated control, column head prints (g), cells %) is recorded as 16.6%.
